Measurements reported in patent US9408859B2, “Pharmaceutical compositions useful for preventing and treating cancer” (Mitotech SA, priority 2007, dated 2016).

Assays:
[1] = Tolerance to the treatment and autopsy in mice with A-431 xenografts; format: in vivo
Procedure: Tolerance to the treatment was estimated according to the time of death which corresponded to the treatment with each preparation.
Mice were sacrificed by ether anesthesia overdose. An autopsy was performed, and tumors were then extracted and assayed histologically and immunohistochemically. Tumors were fixed in 10% formaldehyde and set into paraffin wax. Histological assays were carried out on tumor histological sections, stained with hematoxylin and eosin. The number of microvessels was examined by standard immunological method using antibodies to CD34 antigen. Presence of vessel mimicry was estimated by tumor section staining with Schiffs reagent.

[2] = Mouse life-span when managed in a chamber without sterile aeration; format: in vivo; conditions: SkQ1 added to drinking water
HCT116 p53+/+ = test: Growth of human large intestine carcinoma xenografts, wild type p53; format: in vivo, mouse; conditions: SkQ1 in drinking water, 0.5-50 nM/kg/day, 4 weeks
Description: (§1) Two human large intestine carcinoma cell sub-lines that differ by p53 status—wild type cells (HCT116 p53+/+)) and cells with inactivated p53 (HCT116 p53−/−)) cell line cultivation see in Bunz et al. (1998) Science, 282:1497-1500; see model description in Sablina et al. (2003), J. Biol. Chem., 278:27362-27371. One million cells were hypodermically implanted into thymus-deprived mice. Mice in each group were divided into 4 sub-groups of 10 mice: one group received water to drink; one group received water with SkQ1 (0.01 nmol) per mouse per day (0.5 nM/kg/day); one group received water with SkQ1 (0.1 nmol) per mouse per day (5 nM/kg/day); one group received water with SkQ1 (1 nmol) per mouse per day (50 nM/kg/day).
(§2) The size of the tumors was evaluated every 3 days. After 4 weeks mice were sacrificed and the tumors removed and fixed for histological assay.

[3] = tested on: human rhabdomyosarcoma cell line (RD); test: Apoptosis in RD cells (Hoechst staining, propidium iodide flow cytometry); format: cell-based; conditions: 20 nM SkQ1 for 24 hours; flow cytometry
Procedure: To determine the viability of the cells, chromatine condensation and fragmentation was analyzed in similarly-treated cells (20 nM SkQ or 1 mM NAC or 100 mM Trolox for 24 hours and 1 μm FCCP one hour before SkQ1 where indicated) after staining with Hoechst 3342 (GenScript, Cat. No. L00309, performed according to manufacture manual http://www.genscript.com/tech_guide/TM0361.pdf). The cells were then examined using an Axiovert fluorescent microscope equipped with objectives 20× (dry) and 100× (oil immersion Neofluar) (Carl Zeiss).
Further evidence of apoptosis was obtained by analysis of DNA content in the cellular population using flow cytometry. Cells were incubated with 0.05% ethanol was added (control) or with 20 nM SkQ1 for 24 hours, and then fixed and stained with propidium iodide (5 μM). They were then analyzed by flow cytometry using a FC-500 FACS (Beckman Coulter, Inc., Brea, Calif.).

Lung Lewis's carcinoma = test: SkQ1 combined with doxorubicin on growth of lung Lewis's carcinoma; format: in vivo, mouse; conditions: regime per group
Procedure: For development of oncological diseases joint therapy that combines SkQ1 and chemotherapy, a study on SkQ1 influence on single doxorubicin injection efficiency was performed (one of the mechanisms of the preparation is activation of oxidative processes in normal and cancerous cells). SkQ1 was introduced before, simultaneously, or after introduction of doxorubicin in maximum dose of 500 nM/kg (in order to block oxidative mechanism of doxorubicin influence).
Doxorubicin was applied before, after, and during the course of SkQ1.

HCT116 p53−/− = test: Growth of human large intestine carcinoma xenografts, inactivated p53; format: in vivo, mouse
Description: as §1, §2

[4] = tested on: human rhabdomyosarcoma cell line (RD); test: RD cell morphology, attachment and multinuclear cells; format: cell-based
Procedure: In the following experiment, a human rhabdomyosarcoma cell line (RD) purchased from the ATCC (#CCL-136) was used. These cells were isolated from a […] 7 years ago and are widely accepted as a model for studies of rhabdomyosarcoma in vitro and in vivo.
The cells were grown in Dulbecco's modified Eagle's medium (DMEM, Gibco®, Invitrogen, Carlsbad, Calif.) supplemented with 10% FBS. The cells were treated with 20 nM SkQ (SkQ1, SkQR1, SkQB1, or SkQBP1), or with a non-targeted antioxidant (1 mM NAC, or 100 μM Trolox) 24 to 72 hours before evaluation. In some experiments 1 μM of the protonophorous uncoupler FCCP was added 1 hour before the addition of SkQ1 to depolarize the mitochondrial membrane, and thus to prevent the electrophoretic accumulation of SkQ in the mitochondrial interior. The cells were then stained with rabbit polyclonal antibodies against actin (1:1000) (Sigma-Aldrich Corp., Baleras, Russia) and monoclonal antibody DM1A against tubulin (1:1000) (Sigma-Aldrich Corp.), and their morphology examined using an Axiovert fluorescent microscope equipped with objectives 20× (dry) and 100× (oil immersion Neofluar) (Carl Zeiss, Germany).

[5] = Experiment 1, 5.0 nM/kg ip daily day 1-14
[6] = Experiment 1, 50.0 nM/kg ip daily day 1-14
[7] = Experiment 3, 5.0 nM/kg ip daily day 1-14

## CC1=C(C)C(=O)C(CCCCCCCCCC[P+](c2ccccc2)(c2ccccc2)c2ccccc2)=CC1=O [SkQ1]
[1]; [5]
  Autopsy findings in organs: no visual signs of pathological changes
  Treatment tolerance: satisfactory
[1]; [6]
  Autopsy findings in organs: no pathological changes
  Treatment tolerance: satisfactory
[1]; Experiment 2, 5.0 nM/kg ip daily day 1-8
  Autopsy findings in organs: no visual signs of pathological changes
[1]; [7]
  Autopsy findings in organs: no visual signs of pathological changes
  Treatment tolerance: satisfactory
[2]
  Immunity to infectious diseases (by mouse life-span): increased HIV mice immunity to infectious diseases
HCT116 p53+/+
  Tumor growth vs control group receiving pure water: suppression of tumor growth
[3]
  sub-G1 peak (DNA content, propidium iodide): accumulation of apoptotic bodies
Lung Lewis's carcinoma; Day 7, SkQ 500 nmol 0.2 ml/mouse per os x5, DOX 7 mg/kg ip
  TGS %, by tumor volume: 33%
Lung Lewis's carcinoma; Day 7, SkQ 500 nmol 0.2 ml/mouse per os x5, DOX 7 mg/kg ip, listed as SkQ
  TGS %, by tumor volume: 33^ %
Lung Lewis's carcinoma; Day 10
  TGS %, by tumor volume: 42%
Lung Lewis's carcinoma; Day 14
  TGS %, by tumor volume: 48%
Lung Lewis's carcinoma; Day 17
  TGS %, by tumor volume: 28%
Lung Lewis's carcinoma; Day 21
  TGS %, by tumor volume: 30%
HCT116 p53−/−; SkQ1 in drinking water
  Effect on tumors with inactivated p53 compared to WT p53: stronger effect on the tumor with inactivated p53
HCT116 p53−/−; SkQ1 in drinking water, 0.5-50 nM/kg/day, 4 weeks, inactivated p53
  Tumor growth vs control group receiving pure water: suppression of tumor growth
HCT116 p53−/−; added to drinking water
  dose of maximal effect: 5 nM
HCT116 p53−/−; in drinking water, equals 5 nM/kg/day, stated for the HCT116 study
  efficient concentration: 0.1 nmol per mouse per day
[4]; 20 nM, pretreatment for 24 hours
  Cell morphology: induced the formation of elongated cells
[4]; 8th day of cultivation with SkQ1
  Multinuclear cells in surviving cell fraction: enriched in multinuclear cells
[4]; 8th day of cultivation with nM SkQ1
  cells remained attached to the surface: about 4%
